Source: US20080300231A1, “Antibacterial amide macrocycles VI” (priority 2005, published 2008)

Molecular target: S. aureus 133 Translation
Assay: S. aureus in vitro transcription-translation assay (firefly luciferase, S30 extract)
Assay type: biochemical
Conditions: 50% inhibition of the translation of firefly luciferase
Description: In Vitro Transcription-Translation with S. aureus Extracts
Construction of an S. aureus luciferase Reporter Plasmid
In order to construct a reporter plasmid which can be used in an in vitro transcription-translation assay from S. aureus the plasmid pBESTluc (Promega Corporation, USA) is used. The E. coli tac promoter present in this plasmid in front of the firefly luciferase is replaced with the capA1 promoter with appropriate Shine-Dalgarno sequence from S. aureus. The primers CAPFor 5′-CGGCCAAGCTTACTC-[…] […]-3′ and CAPRev 5′-[…]-3′ are used for this. The primer CAPFor contains the capA1 promoter, the ribosome binding site and the 5′ region of the luciferase gene. After PCR using pBESTluc as template it is possible to isolate a PCR product which contains the firefly luciferase gene with the fused capA1 promoter. This is, after restriction with ClaI and HindIII, ligated into the vector pBESTluc which has likewise been digested with ClaI and HindIII. The resulting plasmid p1a can be replicated in E. coli and can be used as template in the S. aureus in vitro transcription-translation test.
Preparation of S30 Extracts from S. aureus
Six litres of BHI medium are inoculated with a 250 ml overnight culture of an S. aureus strain and allowed to grow at 37° C. until the OD600 nm is 2-4. The cells are harvested by centrifugation and washed in 500 ml of cold buffer A (10 mM Tris acetate, pH 8.0, 14 mM magnesium acetate, 1 mM DTT, 1 M KCl). After renewed centrifugation, the cells are washed in 250 ml of cold buffer A with 50 mM KCl, and the resulting pellets are frozen at −20° C. for 60 min. The pellets are thawed on ice in 30 to 60 min and taken up to a total volume of 99 ml in buffer B (10 mM Tris acetate, pH 8.0, 20 mM magnesium acetate, 1 mM DTT, 50 mM KCl). 1.5 ml portions of lysostaphin (0.8 mg/ml) in buffer B are introduced into 3 precooled centrifuge cups and mixed with 33 ml of the cell suspension each. The samples are incubated at 37° C., shaking occasionally, for 45 to 60 min, before 150 μl of a 0.5 M DTT solution are added. The lysed cells are centrifuged at 30 000×g and 4° C. for 30 min. The cell pellet is taken up in buffer B and then centrifuged again under the same conditions, and the collected supernatants are combined. The supernatants are centrifuged again under the same conditions, and 0.25 volumes of buffer C (670 mM Tris acetate, pH 8.0, 20 mM magnesium acetate, 7 mM Na3 phosphoenolpyruvate, 7 mM DTT, 5.5 mM ATP, 70 μM amino acids (complete from Promega), 75 μg of pyruvate kinase (Sigma, Germany))/ml are added to the upper ⅔ of the supernatant. The samples are incubated at 37° C. for 30 min. The supernatants are dialysed against 2 l of dialysis buffer (10 mM Tris acetate, pH 8.0, 14 mM magnesium acetate, 1 mM DTT, 60 mM potassium acetate) in a dialysis tube with a 3500 Da cut-off with one buffer change at 4° C. overnight. The dialysate is concentrated to a protein concentration of about 10 mg/ml by covering the dialysis tube with cold PEG 8000 powder (Sigma, Germany) at 4° C. The S30 extracts can be stored in aliquots at −70° C.
Determination of the IC50 in the S. aureus In Vitro Transcription-Translation Assay
The inhibition of protein biosynthesis of the compounds can be shown in an in vitro transcription-translation assay. The assay is based on the cell-free transcription and translation of firefly luciferase using the reporter plasmid p1a as template and cell-free S30 extracts obtained from S. aureus. The activity of the resulting luciferase can be detected by luminescence measurement.
The amount of S30 extract or plasmid p1a to be employed must be tested anew for each preparation in order to ensure an optimal concentration in the assay. 3 μl of the substance to be tested, dissolved in 5% DMSO, are provided in an MTP. Then […] of a suitably concentrated plasmid solution p1a are added. […]

## NC[C@H](O)C[C@@H]1NC(=O)[C@@H](N)Cc2cc(ccc2O)-c2ccc(O)c(c2)C[C@@H](C(=O)O)NC1=O [Biphenomycin B, biphenomycin B, reference compound]
  IC50: 1500 nM
